The source of these data is ChEMBL document CHEMBL1149460, “Pharmacokinetics and metabolism studies on (3-tert-butyl-7-(5-methylisoxazol-3-yl)-2-(1-methyl-1H-1,2,4-triazol-5-ylmethoxy) pyrazolo[1,5-d][1,2,4]triazine, a functionally selective GABA(A) alpha5 inverse agonist for cognitive dysfunction” (Bioorg Med Chem Lett, 2006).

A short description of series [1]: Binding affinity to GABA alpha5 receptor. Also on record: species or system Homo sapiens.
The target in series [2] is GABA A receptor alpha-1/beta-1/gamma-2 (Homo sapiens) (UniProt P14867+P18507+P18505). The series can be described thus: Efficacy against human GABA alpha-1 receptor expressed in mouse fibroblast L(tk-) cells by whole cell patch clamp method. Type of series: functional, cell-based. On the technique in general: In patch-clamp work, channel activity is measured electrically.

In series [3] the target is GABA-A receptor; anion channel (Rattus norvegicus) (UniProt O09028+P15431+P18506+P18508+P19969+P20236+P23574+P23576+P28471+P28473+P30191+P62813+P63079+P63138+Q91ZM7+Q9ES14). The series can be described thus: Receptor occupancy in vivo by displacement of [3H]Ro 15-1788 binding from rat brain GABAA receptor at 3 mg/kg, ip. It counts as functional, organism-based. The arrangement: dose 3 mg/kg. (Loss of bound radioactivity is the signal in a displacement assay; it reports binding, not function.)

Series [4] can be described thus: Efficacy against human GABA alpha-3 receptor expressed in mouse fibroblast L(tk-) cells by whole cell patch clamp method. Type of series: functional.
Series [5] can be described thus: Efficacy against human GABA alpha-2 receptor expressed in mouse fibroblast L(tk-) cells by whole cell patch clamp method. Type of series: functional.
Series [6] can be described thus: Efficacy against human GABA alpha-5 receptor expressed in mouse fibroblast L(tk-) cells by whole cell patch clamp method. It counts as functional.
Series [7] in a line: Clearance in rat. The conditions noted are these: in vivo. It counts as ADME, organism-based.
Series [8] is described as follows: Oral bioavailability in rhesus. It counts as ADME, organism-based, Macaca mulatta. The conditions noted are these: rhesus monkey, in vivo.
Series [9] in a line: Half life in rat. The following applies: in vivo. It counts as ADME, organism-based.
Series [10] can be described thus: Clearance in rhesus. The conditions noted are these: rhesus monkey, in vivo. Type of series: ADME, organism-based, Macaca mulatta.
A short description of series [11]: Half life in dog. The following applies: in vivo. It counts as ADME, organism-based, Canis lupus familiaris.
Series [12] is described as follows: Clearance in dog. It counts as ADME, organism-based, Canis lupus familiaris. The conditions noted are these: in vivo.
A short description of series [13]: Half life in rhesus. The following applies: rhesus monkey, in vivo. Type of series: ADME, organism-based, Macaca mulatta.

The structures appear in SMILES notation.

For the compound `Cn1ncnc1COc1nn2c(-c3cc(CO)on3)nnc(O)c2c1C(C)(C)C`, the inhibition constant (Ki) – broadly, a measure of affinity in units of concentration, obtained from inhibition or displacement – in series [1] turned out to be 370 nM.

As to `Cn1ncnc1COc1nn2c(-c3cc(CO)on3)nncc2c1C(C)(C)C`, the Efficacy in [2] was -11%; in series [4], -15%; in series [5] it was -1%; in [6], -52%. Besides, in [3], the Activity was 12%. The compound also yielded an inhibitory constant (Ki) in series [1] of 1.1 nM.

In the case of `Cc1cc(-c2nnc(O)c3c(C(C)(C)C)c(OCc4ncnn4C)nn23)no1`, the Efficacy was 1% in [2], -8% in series [4], 0% in series [5] and -47% in series [6]. Also, affinity in [1] was put at a Ki of 700 nM.

Regarding `Cc1cc(-c2nnc(O)c3c(C(C)(C)CO)c(OCc4ncnn4C)nn23)no1`, the Ki in [1] was more than 666 nM.

Consider `Cn1ncnc1COc1nn2c(-c3cc(CO)on3)nncc2c1C(C)(C)CO`, for which the Efficacy was -45% in series [2], -39% in [4], -31% in series [5] and -44% in [6]. For the same compound, in [3], the Activity amounted to 8%. Moreover, in [1], the Ki was determined as 21 nM.

On to `Cc1cc(-c2nncc3c(C(C)(C)CO)c(OCc4ncnn4C)nn23)no1`, for which the Efficacy in series [2] was -41%; in series [4], -32%; in series [5], -23%; in series [6], -40%. For the same compound, the Activity in series [3] is 21%. In [1], this compound had a Ki of 9.4 nM.

Turning to `Cc1cc(-c2nncc3c(C(C)(C)C)c(OCc4ncnn4C)nn23)no1`, the Efficacy was -16% in series [2], -9% in [4], 6% in [5] and -55% in series [6]. Further, the clearance (as a rule, the rate of elimination divided by the concentration) turned out to be 27 mL/min/kg in series [7], 33 mL/min/kg in series [10] and 39 mL/min/kg in series [12]. In addition, in [3], the Activity is more than 95%. Besides, in series [8], the bioavailability (in general, dose-corrected exposure relative to a reference, in per cent) is less than 2%. Moreover, the half-life (usually how long it takes for the measured level to halve) in [9] is 30 min; in series [11] it was 30 min; in series [13] it was 18 min. The compound further returned a Ki in series [1] of 1.4 nM.
